Reference: patent US11141452B2, “Bifunctional compounds for relief of pain comprising an opioid receptor agonist moiety and a NK1 receptor antagonist moiety and methods for treating pain” (THE ARIZONA BOARD OF REGENTS ON BEHALF OF THE UNIVERSITY OF …, priority 2014, dated 2021)
Where “and” joins values, the source holds several entries; their conditions need not be identical. Equal entries are not always repeated. Where two headings read alike, the source gives them in different places. Non-standard residues stand in square brackets, D forms with d. Residues, ends and D or L forms follow the SMILES beside them. *: point of attachment. NH(3,5-(CF3)2-benzyl) = FC(F)(F)c1cc(CN*)cc(C(F)(F)F)c1; NMeBn(3,5-(CF3)2) = CN(Cc1cc(C(F)(F)F)cc(C(F)(F)F)c1)*

Experiments:
MOR [1] = assay: Radioligand binding assay at μ opioid receptor; settings: for Log[IC50±] (μ): log IC50 ± error; for Ki^μ/Ki^δ: ratio of binding affinities MOR/DOR
Procedure: (§1) Binding affinities of these ligands were measured on radioligand binding assays. […] ([43]).

MOR [2] = assay: Guinea pig isolated ileum (GPI) functional assay; format: cell-based; settings: for IC50: agonist activity, electrically stimulated tissue, read-out: GPI (MOR) IC50
DOR [3] = target: T1, DOR (Mus musculus, UniProt P32300); assay: Mouse isolated vas deferens (MVD) functional assay; format: cell-based
T1 construct: Male ICR mice under CO2 anesthesia were sacrificed by cervical dislocation and the vasa differentia removed; from tissue; host or cells: mouse vas deferens (ICR mice)

NK1R = target: T2, NK1R (Cavia porcellus, UniProt P30547); assay: GPI/LMMP functional assay at NK1R (agonist and antagonist testing); format: cell-based, guinea pig; settings: for GPI/LMMP (NK1R) Agonist: agonist activity at the concentration in the cell
T2 construct: The longitudinal muscle with myenteric plexus (LMMP) was carefully separated from the circular muscle; from tissue; host or cells: guinea pig ileum longitudinal muscle with myenteric plexus

DOR [4] = target: DOR (Homo sapiens, UniProt P41143); assay: Radioligand binding assay at δ opioid receptor; settings: for Ki: Ki^δ (nM)
Procedure: as §1

hNK1 = target: T3, hNK1 (Homo sapiens, UniProt P25103); assay: hNK1/CHO cell membrane radioligand binding assay ([3H]SP); settings: for Ki: Ki^hNK1 (nM), hNK1/CHO membranes, [3H]SP; for Ki^hNK1/Ki^rNK1: ratio human/rat NK1
T3 construct: expressed in transfected cells; host or cells: CHO

[5] = antagonist activity, read-out: GPI/LMMP (NK1R) Ke (nM) ± S.E.M.
[6] = MVD (DOR) IC50 (nM), agonist activity, electrically stimulated tissue
[7] = GPI/LMMP (NK1R) Ke (nM) ± S.E.M., antagonist activity

T2 sequence (P30547 whole entry): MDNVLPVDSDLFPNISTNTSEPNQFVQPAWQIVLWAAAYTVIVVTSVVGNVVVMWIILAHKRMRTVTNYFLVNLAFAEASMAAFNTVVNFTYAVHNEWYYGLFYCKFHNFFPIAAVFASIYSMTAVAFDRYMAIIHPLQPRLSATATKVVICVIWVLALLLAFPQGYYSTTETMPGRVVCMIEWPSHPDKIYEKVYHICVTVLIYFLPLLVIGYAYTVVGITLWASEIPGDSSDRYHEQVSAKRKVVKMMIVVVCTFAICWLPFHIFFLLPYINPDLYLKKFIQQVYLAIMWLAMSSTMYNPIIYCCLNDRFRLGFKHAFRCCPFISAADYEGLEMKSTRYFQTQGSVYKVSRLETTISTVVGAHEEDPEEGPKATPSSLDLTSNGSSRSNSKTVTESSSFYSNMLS
Sequence of DOR (Homo sapiens, UniProt P41143) (P41143 whole entry): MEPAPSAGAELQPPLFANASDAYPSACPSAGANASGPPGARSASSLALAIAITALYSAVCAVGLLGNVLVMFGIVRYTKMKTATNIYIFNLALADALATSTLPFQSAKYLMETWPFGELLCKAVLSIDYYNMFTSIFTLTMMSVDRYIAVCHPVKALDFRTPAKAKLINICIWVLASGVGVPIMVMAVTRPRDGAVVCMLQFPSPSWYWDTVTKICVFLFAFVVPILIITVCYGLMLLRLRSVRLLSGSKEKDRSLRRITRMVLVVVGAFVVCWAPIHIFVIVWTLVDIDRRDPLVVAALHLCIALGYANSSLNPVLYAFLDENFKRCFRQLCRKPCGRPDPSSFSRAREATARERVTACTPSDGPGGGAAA
T1 sequence (P32300 whole entry): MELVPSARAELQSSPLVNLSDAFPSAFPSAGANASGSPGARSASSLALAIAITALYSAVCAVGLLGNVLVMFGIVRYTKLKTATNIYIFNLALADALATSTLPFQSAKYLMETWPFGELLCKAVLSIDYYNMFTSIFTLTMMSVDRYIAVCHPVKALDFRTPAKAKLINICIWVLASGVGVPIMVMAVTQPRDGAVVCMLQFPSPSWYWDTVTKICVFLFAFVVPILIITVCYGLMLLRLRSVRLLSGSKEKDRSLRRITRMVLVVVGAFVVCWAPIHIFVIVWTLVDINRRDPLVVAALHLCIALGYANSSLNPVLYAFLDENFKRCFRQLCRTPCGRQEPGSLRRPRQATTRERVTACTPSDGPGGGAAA
T3 sequence (P25103 whole entry): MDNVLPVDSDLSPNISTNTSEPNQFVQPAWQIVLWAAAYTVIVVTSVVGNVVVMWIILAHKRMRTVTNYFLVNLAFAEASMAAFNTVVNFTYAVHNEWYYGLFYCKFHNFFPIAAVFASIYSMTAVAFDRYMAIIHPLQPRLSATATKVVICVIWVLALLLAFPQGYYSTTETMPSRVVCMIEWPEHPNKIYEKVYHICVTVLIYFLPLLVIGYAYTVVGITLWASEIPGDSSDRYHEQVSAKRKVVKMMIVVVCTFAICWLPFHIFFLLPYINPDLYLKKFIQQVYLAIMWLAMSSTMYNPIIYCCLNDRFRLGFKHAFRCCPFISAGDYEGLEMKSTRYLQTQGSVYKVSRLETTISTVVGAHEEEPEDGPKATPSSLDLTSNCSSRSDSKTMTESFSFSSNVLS

## CC(C)C[C@H](NC(=O)[C@@H]1CCCN1C(=O)[C@H](Cc1ccc(O)cc1)NC(=O)CNC(=O)[C@H](Cc1ccccc1)NC(=O)[C@@H](C)NC(=O)[C@@H](N)Cc1ccc(O)cc1)C(=O)N[C@@H](Cc1c[nH]c2ccccc12)C(=O)NCc1cc(C(F)(F)F)cc(C(F)(F)F)c1 [AKG114] (H-Y[dA]FGYPLW-{NH(3,5-(CF3)2-benzyl)})
MOR [1]
  Ki: 0.004 µM
  Log[IC50±] (μ): −8.02 ± 0.04
MOR [2]
  IC50: 0.11 µM and 0.112 µM
DOR [3]
  higher agonist activity at DOR compared to MOR (functional assays): 4 times
NK1R; [5]
  Kb: 15 nM

## CC(C)C[C@H](NC(=O)[C@@H]1CCCN1C(=O)CCCNC(=O)[C@H](Cc1ccccc1)N(C)C(=O)CNC(=O)[C@@H](C)NC(=O)[C@@H](N)Cc1ccc(O)cc1)C(=O)N[C@@H](Cc1c[nH]c2ccccc12)C(=O)NCc1cc(C(F)(F)F)cc(C(F)(F)F)c1 [AKG123, H-Tyr-D-Ala-Gly-NMePhe-γ-Abu-Pro-Leu-Trp-NH-Bn(3′,5′-(CF3)2)]
MOR [1]
  Ki: 0.009 µM
  Log[IC50±] (μ): −7.73 ± 0.07
DOR [4]
  IC50: 0.00589 µM
  Ki: 3 nM
MOR [2]
  IC50: 0.424 ± 0.148 µM
DOR [3]
  IC50: 50.1 ± 17.4 nM
NK1R
  Kb: 2.3 ± 0.7 nM

## CC(C)C[C@H](NC(=O)[C@@H]1CCCN1C(=O)[C@H](Cc1ccc(O)cc1)NC(=O)CNC(=O)[C@H](Cc1ccccc1)NC(=O)[C@@H](C)NC(=O)[C@@H](N)Cc1ccc(O)cc1)C(=O)N[C@@H](Cc1c[nH]c2ccccc12)C(=O)N(C)Cc1cc(C(F)(F)F)cc(C(F)(F)F)c1 [QXP04] (H-Y[dA]FGYPLW-{NMeBn(3,5-(CF3)2)})
MOR [1]
  Ki: 0.01 µM
  Log[IC50±] (μ): −7.66 ± 0.05
  Ki^μ/Ki^δ: 1/7
MOR [2]
  GPI/MVD IC50 ratio: 23/1
  IC50: 0.389 ± 0.18 µM
NK1R
  GPI/LMMP (NK1R) Agonist: None at 1 uM

## Cc1cc(O)cc(C)c1C[C@H](N)C(=O)N[C@H](C)C(=O)NCC(=O)N[C@@H](Cc1ccccc1)C(=O)N1CCC[C@H]1C(=O)N[C@@H](CC(C)C)C(=O)N[C@@H](Cc1c[nH]c2ccccc12)C(=O)NCc1cc(C(F)(F)F)cc(C(F)(F)F)c1 [AKG116, H-Dmt-D-Ala-Gly-Phe-Pro-Leu-Trp-NH-Bn(3′,5′-(CF3)2)]
MOR [1]
  Ki: 0.003 µM
  Log[IC50±] (μ): −8.63 ± 0.04
  Ki^μ/Ki^δ: 3/1
DOR [4]
  IC50: 0.00219 µM
  Ki: 1 nM
hNK1
  Ki: 1.4 nM
  Ki^hNK1/Ki^rNK1: 1/19
MOR [2]
  GPI/MVD IC50 ratio: 26/1
  IC50: 0.0808 µM
DOR [3]
  higher agonist activity at DOR compared to MOR (functional assays): 26 times
DOR [3]; [6]
  IC50: 3.1 nM
NK1R
  GPI/LMMP (NK1R) Agonist: None at 100 nM
NK1R; [5]
  Kb: 25 nM and 24.9 nM

## CCCC[C@H](NC(=O)[C@H](Cc1ccccc1)N(C)C(=O)CNC(=O)[C@@H](C)NC(=O)[C@@H](N)Cc1ccc(O)cc1)C(=O)N1CCC[C@H]1C(=O)N[C@@H](CC(C)C)C(=O)N[C@@H](Cc1c[nH]c2ccccc12)C(=O)NCc1cc(C(F)(F)F)cc(C(F)(F)F)c1 [AKG112, H-Tyr-D-Ala-Gly-NMePhe-Nle-Pro-Leu-Trp-NH-Bn(3′,5′-(CF3)2)]
MOR [1]
  Ki: 0.013 µM
  Log[IC50±] (μ): −7.51 ± 0.04
DOR [4]
  IC50: 0.0501 µM
MOR [2]
  IC50: 0.719 µM
DOR [3]; [6]
  IC50: 11.6 ± 2.55 nM
NK1R; [7]
  Kb: 5.4 ± 2.1 nM

## CC(C)C[C@H](NC(=O)[C@@H]1CCCN1C(=O)[C@H](Cc1ccccc1)N(C)C(=O)CNC(=O)[C@@H](C)NC(=O)[C@@H](N)Cc1ccc(O)cc1)C(=O)N[C@@H](Cc1c[nH]c2ccccc12)C(=O)NCc1cc(C(F)(F)F)cc(C(F)(F)F)c1 [AKG117, H-Tyr-D-Ala-Gly-NMePhe-Pro-Leu-Trp-NH-Bn(3′,5′-(CF3)2)]
MOR [1]
  Log[IC50±] (μ): −7.05 ± 0.04
MOR [2]
  IC50: 0.23 µM and 0.232 µM
DOR [3]; [6]
  IC50: 100 nM

## CC(C)C[C@H](NC(=O)[C@@H]1CCCN1C(=O)Cc1ccc(CNC(=O)[C@H](Cc2ccccc2)N(C)C(=O)CNC(=O)[C@@H](C)NC(=O)[C@@H](N)Cc2ccc(O)cc2)cc1)C(=O)N[C@@H](Cc1c[nH]c2ccccc12)C(=O)NCc1cc(C(F)(F)F)cc(C(F)(F)F)c1 [AKG178, H-Tyr-D-Ala-Gly-NMePhe-4-Ampa-Pro-Leu-Trp-NH-Bn(3′,5′-(CF3)2)]
hNK1
  Ki^hNK1/Ki^rNK1: 1/21
MOR [2]
  GPI/MVD IC50 ratio: 15/1
  IC50: 0.65 µM and 0.654 µM
DOR [3]
  higher agonist activity at DOR compared to MOR (functional assays): 15 times
NK1R
  GPI/LMMP (NK1R) Agonist: None at 300 nM
NK1R; [5]
  Kb: 76 nM

## Cc1cc(O)cc(C)c1C[C@H](N)C(=O)N[C@H](C)C(=O)NCC(=O)N[C@@H](Cc1ccc(I)cc1)C(=O)N1CCC[C@H]1C(=O)N[C@@H](CC(C)C)C(=O)N[C@@H](Cc1c[nH]c2ccccc12)C(=O)NCc1cc(C(F)(F)F)cc(C(F)(F)F)c1 [AKG193, H-Dmt-D-Ala-Gly-Phe(4-I)-Pro-Leu-Trp-NH-Bn(3′,5′-(CF3)2)]
MOR [1]
  Ki: 0.006 µM
  Log[IC50±] (μ): −7.88 ± 0.07
MOR [2]; at 1 uM
  GPI (MOR) % at 1 uM: 41% at 1 uM

## Cc1cc(O)cc(C)c1C[C@H](N)C(=O)N[C@H](C)C(=O)NCC(=O)N(C)[C@@H](Cc1ccc(F)cc1)C(=O)N1CCC[C@H]1C(=O)N[C@@H](CC(C)C)C(=O)N[C@@H](Cc1c[nH]c2ccccc12)C(=O)NCc1cc(C(F)(F)F)cc(C(F)(F)F)c1 [AKG128, H-Dmt-D-Ala-Gly-NMePhe(4-F)-Pro-Leu-Trp-NH-Bn(3′,5′-(CF3)2)]
MOR [1]
  Ki: 0.001 µM
  Log[IC50±] (μ): −8.55 ± 0.18
  Ki^μ/Ki^δ: 1/4
hNK1
  Ki^hNK1/Ki^rNK1: 1/13
MOR [2]
  IC50: 0.0765 µM
DOR [3]
  higher agonist activity at DOR compared to MOR (functional assays): ~7 times
DOR [3]; [6]
  IC50: 11.5 ± 5.6 nM
NK1R; [7]
  Kb: 11.2 ± 2.7 nM
NK1R
  GPI/LMMP (NK1R) Agonist: None at 30 nM

## CC(C)C[C@H](NC(=O)[C@@H]1CCCN1C(=O)Cc1ccc(NC(=O)[C@H](Cc2ccccc2)N(C)C(=O)CNC(=O)[C@@H](C)NC(=O)[C@@H](N)Cc2ccc(O)cc2)cc1)C(=O)N[C@@H](Cc1c[nH]c2ccccc12)C(=O)NCc1cc(C(F)(F)F)cc(C(F)(F)F)c1 [AKG177, H-Tyr-D-Ala-Gly-NMePhe-4-Apac-Pro-Leu-Trp-NH-Bn(3′,5′-(CF3)2)]
MOR [1]
  Ki: 0.001 µM
  Log[IC50±] (μ): −8.68 ± 0.19
  Ki^μ/Ki^δ: 1/70
DOR [4]
  IC50: 0.148 µM
  Ki: 70 nM
hNK1
  Ki^hNK1/Ki^rNK1: 1/14
MOR [2]
  GPI/MVD IC50 ratio: 1/1
  IC50: 0.041 µM and 0.0408 µM
DOR [3]
  IC50: 35 ± 7.89 nM
NK1R
  Kb: 39.2 ± 7.9 nM
  GPI/LMMP (NK1R) Agonist: None at 100 nM

## CC(C)C[C@H](NC(=O)[C@@H]1CCCN1C(=O)[C@H](CCC(N)=O)NC(=O)[C@H](Cc1ccc(F)cc1)N(C)C(=O)CNC(=O)[C@@H](C)NC(=O)[C@@H](N)Cc1ccc(O)cc1)C(=O)N[C@@H](Cc1c[nH]c2ccccc12)C(=O)NCc1cc(C(F)(F)F)cc(C(F)(F)F)c1 [AKG143]
MOR [1]
  Ki: 0.002 µM
  Log[IC50±] (μ): −8.35 ± 0.07
DOR [4]
  IC50: 0.00145 µM
  Ki: 0.7 nM
hNK1
  Ki: 3.2 nM

## CC(C)C[C@H](NC(=O)[C@@H]1CCCN1C(=O)CCNC(=O)[C@H](Cc1ccccc1)N(C)C(=O)CNC(=O)[C@@H](C)NC(=O)[C@@H](N)Cc1ccc(O)cc1)C(=O)N[C@@H](Cc1c[nH]c2ccccc12)C(=O)NCc1cc(C(F)(F)F)cc(C(F)(F)F)c1 [AKG119, H-Tyr-D-Ala-Gly-NMePhe-β-Ala-Pro-Leu-Trp-NH-Bn(3′,5′-(CF3)2)]
MOR [1]
  Ki: 0.008 µM
  Log[IC50±] (μ): −7.76 ± 0.11
hNK1
  Ki^hNK1/Ki^rNK1: 1/32
MOR [2]
  GPI/MVD IC50 ratio: 10/1
  IC50: 0.365 ± 0.185 µM
NK1R
  GPI/LMMP (NK1R) Agonist: None at 100 nM

## Cc1cc(O)cc(C)c1C[C@H](N)C(=O)N[C@H](C)C(=O)NCC(=O)N[C@@H](Cc1ccc(Br)cc1)C(=O)N1CCC[C@H]1C(=O)N[C@@H](CC(C)C)C(=O)N[C@@H](Cc1c[nH]c2ccccc12)C(=O)NCc1cc(C(F)(F)F)cc(C(F)(F)F)c1 [AKG192, H-Dmt-D-Ala-Gly-Phe(4-Br)-Pro-Leu-Trp-NH-Bn(3′,5′-(CF3)2)]
MOR [1]
  Ki: 0.005 µM
  Log[IC50±] (μ): −7.96 ± 0.12
MOR [2]
  IC50: 0.463 ± 0.114 µM
NK1R; [7]
  Kb: 23.4 ± 8.9 nM

## Cc1cc(O)cc(C)c1C[C@H](N)C(=O)N[C@H](C)C(=O)NCC(=O)N[C@@H](Cc1ccc(Cl)cc1)C(=O)N1CCC[C@H]1C(=O)N[C@@H](CC(C)C)C(=O)N[C@@H](Cc1c[nH]c2ccccc12)C(=O)NCc1cc(C(F)(F)F)cc(C(F)(F)F)c1 [AKG191, H-Dmt-D-Ala-Gly-Phe(4-Cl)-Pro-Leu-Trp-NH-Bn(3′,5′-(CF3)2)]
MOR [1]
  Ki: 0.002 µM
  Log[IC50±] (μ): −8.33 ± 0.09
hNK1
  Ki^hNK1/Ki^rNK1: 1/9
MOR [2]
  IC50: 0.166 ± 0.0716 µM
DOR [3]; [6]
  IC50: 25.4 ± 7.7 nM
NK1R
  GPI/LMMP (NK1R) Agonist: None at 300 nM
